The target in one assay is T1, TBK1 (Homo sapiens, UniProt Q9UHD2).
T1 construct: His-tag; made in house; host or cells: Sf9 insect cells
T1 sequence (Q9UHD2 1-729): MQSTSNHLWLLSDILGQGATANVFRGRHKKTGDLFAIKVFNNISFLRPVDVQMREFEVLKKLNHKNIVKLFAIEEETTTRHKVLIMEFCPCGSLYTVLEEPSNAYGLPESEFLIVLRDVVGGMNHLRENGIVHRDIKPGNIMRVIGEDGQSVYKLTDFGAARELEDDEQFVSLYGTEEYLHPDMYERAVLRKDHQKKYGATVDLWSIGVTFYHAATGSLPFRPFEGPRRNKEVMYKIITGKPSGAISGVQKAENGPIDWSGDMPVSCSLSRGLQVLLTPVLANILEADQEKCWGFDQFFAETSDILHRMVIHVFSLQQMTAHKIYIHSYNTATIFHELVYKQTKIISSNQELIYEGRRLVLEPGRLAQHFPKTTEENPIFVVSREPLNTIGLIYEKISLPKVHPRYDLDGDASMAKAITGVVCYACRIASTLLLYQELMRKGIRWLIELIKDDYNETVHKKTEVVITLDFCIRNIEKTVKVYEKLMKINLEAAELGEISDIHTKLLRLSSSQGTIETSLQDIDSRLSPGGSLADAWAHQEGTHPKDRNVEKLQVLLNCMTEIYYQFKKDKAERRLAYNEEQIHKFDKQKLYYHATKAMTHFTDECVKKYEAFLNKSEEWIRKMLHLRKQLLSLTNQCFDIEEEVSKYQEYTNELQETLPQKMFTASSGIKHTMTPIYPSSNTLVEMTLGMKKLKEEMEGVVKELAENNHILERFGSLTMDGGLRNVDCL
The assay can be described thus: In-vitro TBK1 kinase assay ([γ33]ATP filter-plate). Type of assay: biochemical. The method, boiled down: (§1)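 His-tagged IKKε and TBK1 from Sf9 cells were assayed with myelin basic protein or casein and [γ33]ATP at 2×Km ATP (32 μM for IKKε, 60 μM for TBK1). Enzyme was 0.1 or 0.015 μg/ml for IKKε and 0.1 or 0.02 μg/ml for TBK1 (normal/sensitized). Reactions ran 30-45 min, were filter-captured, scintillation-counted, and normalized to DMSO after background subtraction.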

Assay [1] relates to IKKε-mediated phosphorylation of IRF3. The assay can be described thus: In-situ phosphorylation of IRF3 (pIRF3 Ser396 ELISA) in HEK293T cells cotransfected with IRF3 and IKKε. Type of assay: cell-based. As to conditions: Homo sapiens, HEK-293T. The method, boiled down: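 Cells for the IRF7 Western blots carried IRF7 and TBK1 plasmids, were seeded at 150,000/well, exposed to compound overnight and probed for pSer477/Ser479 IRF7. The ELISA readout used IRF3 + IKKε-cotransfected HEK293T at 20,000/well with 20 h treatment, quantifying pSer396 IRF3 relative to DMSO, plus a parallel CellTiter-Glo viability check.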
For orientation: ELISA stands for enzyme-linked immunosorbent assay.

The target in a further assay is T2, IKKε (Homo sapiens, UniProt Q14164).
T2 construct: His-tag; made in house; host or cells: Sf9 insect cells
T2 sequence (Q14164 1-716): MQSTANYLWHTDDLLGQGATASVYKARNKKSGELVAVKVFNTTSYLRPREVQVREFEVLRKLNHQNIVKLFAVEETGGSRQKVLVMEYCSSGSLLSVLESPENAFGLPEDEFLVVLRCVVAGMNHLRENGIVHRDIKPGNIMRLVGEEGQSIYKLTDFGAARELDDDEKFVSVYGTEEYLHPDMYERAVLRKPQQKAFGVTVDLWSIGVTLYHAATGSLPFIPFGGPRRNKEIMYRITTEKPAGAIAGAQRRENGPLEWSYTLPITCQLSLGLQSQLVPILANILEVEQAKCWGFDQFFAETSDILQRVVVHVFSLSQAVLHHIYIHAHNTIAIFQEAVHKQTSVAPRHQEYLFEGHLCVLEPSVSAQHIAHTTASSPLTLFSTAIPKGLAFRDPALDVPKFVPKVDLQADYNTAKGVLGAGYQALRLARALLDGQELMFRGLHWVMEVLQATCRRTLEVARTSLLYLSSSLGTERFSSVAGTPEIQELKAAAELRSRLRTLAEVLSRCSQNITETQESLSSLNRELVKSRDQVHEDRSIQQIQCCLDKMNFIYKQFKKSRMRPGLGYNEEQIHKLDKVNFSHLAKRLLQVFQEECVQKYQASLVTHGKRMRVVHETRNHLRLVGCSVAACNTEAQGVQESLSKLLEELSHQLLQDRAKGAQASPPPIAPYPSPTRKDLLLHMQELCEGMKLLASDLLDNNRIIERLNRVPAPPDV
The experiment in a line: In-vitro IKKε kinase assay ([γ33]ATP filter-plate). Type of assay: biochemical. The method, boiled down:
as §1

The mark [2] stands for this setting: text bins, read-out: IC50 for inhibition of the kinase activity of TBK1.
Setting [3] is: HEK293T cells, 20 hours, text bins, read-out: IC50 for inhibition of the in-situ IKKε-mediated phosphorylation of IRF3.
[4] abbreviates: text bins, read-out: IC50 for inhibition of the kinase activity of IKKε.
Where [5] appears, read: HEK293T cells in culture, Table 3, read-out: pIRF3 ELISA IC50.

The term IC50 denotes the concentration that gives 50% inhibition.

Molecules are shown by their SMILES. Like-named read-outs stand apart in the source and are kept apart here.

As to `COc1cc(Nc2nccc(-c3ccc(NC(=O)C(C)C)c(C#N)c3)n2)ccc1OCCCN1CCOCC1` [compound 434, N-{2-cyano-4-[2-({3-methoxy-4-[3-(morpholin-4-yl)propoxy]phenyl}amino)pyrimidin-4-yl]phenyl}-2-methylpropanamide], the IC50 on TBK1 (setting [2]) was under 10 nM; in assay [1] (setting [3]), under 100 nM; on IKKε (setting [4]), 5 to 50 nM.

With `CCN1CCN(CCCOc2cc(Nc3nccc(-c4ccc(OC5CCOCC5)c(C#N)c4)n3)ccc2OC)CC1` [compound 525, 5-[2-({3-[3-(4-ethylpiperazin-1-yl)propoxy]-4-methoxyphenyl}amino)pyrimidin-4-yl]-2-(tetrahydro-21H-pyran-4-yloxy)benzonitrile], the IC50 at TBK1 (setting [2]) is under 10 nM; in assay [1] (setting [3]), under 100 nM; at IKKε (setting [4]), under 5 nM.

With `COCCNC(=O)Nc1cccc(Nc2nccc(-c3ccc(OC4CCOCC4)c(C#N)c3)n2)c1` [compound 543, 1-[3-({4-[3-Cyano-4-(tetrahydro-2H-pyran-4-yloxy)phenyl]pyrimidin-2-yl}amino)phenyl]-3-(2-methoxyethyl)urea], the IC50 on TBK1 (Table 3, read-out: TBK1 IC50) was 1.3 nM; on TBK1 (setting [2]) it was under 10 nM; in assay [1] (setting [5]) it was 50.3 nM; in assay [1] (setting [3]), under 100 nM; on IKKε (Table 3, read-out: IKKε IC50) it was 1.1 nM; at IKKε (setting [4]), under 5 nM.

`N#Cc1cc(-c2ccnc(Nc3cccc(N)c3)n2)ccc1OC1CCOCC1` [compound 393, 5-{2-[(3-Aminophenyl)amino]pyrimidin-4-yl}-2-(tetrahydro-2H-pyran-4-yloxy)benzonitrile]: the values for the IC50 (on TBK1 (setting [2]); in assay [1] (setting [3]); at IKKε (setting [4])) were under 10 nM, under 100 nM and under 5 nM, respectively.

For `COc1cc(Nc2nccc(-c3ccc(OC4CCOCC4)c(C#N)c3)n2)ccc1C(=O)N(C)C1CCN(C)C1` (stereo not drawn) [compound 385, 4-({4-[3-cyano-4-(tetrahydro-2H-pyran-4-yloxy)phenyl]pyrimidin-2-yl}amino)-2-methoxy-N-methyl-N-(1-methylpyrrolidin-3-yl)benzamide], the figures for the IC50 (at TBK1 (setting [2]); in assay [1] (setting [3]); on IKKε (setting [4])) were under 10 nM, under 100 nM and under 5 nM, respectively.

On to `CN1CCN(c2ccc(Nc3nccc(-c4ccc(OC5CCOCC5)c(C#N)c4)n3)cc2)CC1` [Example 178, 5-(2-{[4-(4-methylpiperazin-1-yl)phenyl]amino}pyrimidin-4-yl)-2-(tetrahydro-2H-pyran-4-yloxy)benzonitrile], for which the results for the IC50 (at TBK1 (setting [2]); in assay [1] (setting [3]); at IKKε (setting [4])) were under 10 nM, under 100 nM and under 5 nM, respectively.

As for `Cc1ccc(Nc2nccc(-c3ccc(OC4CCOCC4)c(C#N)c3)n2)cc1OCCN1CCNCC1` [compound 533, 5-[2-({4-Methyl-3-[2-(piperazin-1-yl)ethoxy]phenyl}amino)pyrimidin-4-yl]-2-(tetrahydro-2H-pyran-4-yloxy)benzonitrile], the IC50 at TBK1 (setting [2]) was under 10 nM; in assay [1] (setting [3]), under 100 nM; on IKKε (setting [4]) it was under 5 nM.

Regarding `N#Cc1cc(-c2ccnc(Nc3cccc(NC(=O)N4CCC(O)C4)c3)n2)ccc1OC1CCOCC1` (stereo not drawn) [compound 536, N-[3-({4-[3-Cyano-4-(tetrahydro-2H-pyran-4-yloxy)phenyl]pyrimidin-2-yl}amino)phenyl]-3-hydroxypyrrolidine-1-carboxamide], the IC50 on TBK1 (Table 3, read-out: TBK1 IC50) is 1.3 nM; on TBK1 (setting [2]) it was under 10 nM; in assay [1] (setting [5]) it was 61.9 nM; in assay [1] (setting [3]) it was under 100 nM; at IKKε (Table 3, read-out: IKKε IC50) it was 0.3 nM; at IKKε (setting [4]) it was under 5 nM.

For the compound `CCN1CCN(Cc2ccc(Nc3nccc(-c4ccc(OC5CCN(C(=O)[C@H](C)O)CC5)c(C#N)c4)n3)cc2)CC1` [compound 508, 5-[2-({4-[(4-ethylpiperazin-1-yl)methyl]phenyl}amino)pyrimidin-4-yl]-2-({1-[(2S)-2-hydroxypropanoyl]piperidin-4-yl}oxy)benzonitrile], the IC50 fell in the range of 10 to 100 nM on TBK1 (setting [2]), 100 to 250 nM in assay [1] (setting [3]) and 5 to 50 nM on IKKε (setting [4]).

The values above are taken from patent US20150352108A1, “AMINO-PYRIMIDINE COMPOUNDS AS INHIBITORS OF TBK1 AND/OR IKK EPSILON” (Alzheimer's Institute of America, priority 2009, published 2015).
